Results published in US12286443B2, “Bycyclic JAK inhibitors and uses thereof” (Insilico Medicine IP Limited, priority 2019, dated 2025).

What follows are molecules tested on Hut-78 cells (assay: Inhibition in Hut-78 cells (IL-2 stimulated, HTRF)). Conditions: Homo sapiens, HuT78; compound 2 hours at 37° C., then IL-2 100 ng/mL 10 min; HTRF; read-out: Hut-78 cells IC50.
Format: cell-based
Description: Exemplary compounds were assayed to determine potency in inhibiting Hut-78 cells by determining IC50 values.
Hut-78 cells were cultures in IMDM+20% FBS medium. Cells were maintained in log phase before the assay. Cell pellets were collected and resuspended in serum-free and phenol-free RPMI 1640 medium. 40,000 cells/well (10 μL) were seeded in each well of a 384-well plate and incubated with and without compound for 2 hours at 37° C. and 5% C02. IL-2 was added (2 μL, final concentration 100 ng/mL) and the mixture was incubated for 10 min. Cells were lysed by adding 4 μL labeled antibodies and the mixture was incubated overnight. The plate was read using the HTRF protocol on an Envision plate reader. The data was analyzed using XL-fit software (Supplier: ID business solutions Ltd.; Software version: XL fit 5.0). Inhibition %=(Max−Sample value)/(Max−Min)*100.
In the table, “A” indicates an IC50 of less than 0.5 μM, “B” indicates an IC50 range from 0.5 μM to 1 μM; and “C” indicates an IC50 range from 1 μM to 10 μM. Also, “na” indicates data is not available.

IC50, < 500 nM:
O=C(NCC(O)C(F)(F)F)c1noc2c1CN(c1ncnc3[nH]ccc13)CC2 (stereo not shown) [Compound 190]
O=C(c1noc2c1CN(c1ncnc3[nH]ccc13)CC2)N1CC(C(F)(F)F)C1 [Compound 194]
O=C(NCC1CC(F)(F)C1)c1noc2c1CN(c1ncnc3[nH]ccc13)CC2 [Compound 198]
CC1(CNC(=O)c2noc3c2CN(c2ncnc4[nH]ccc24)CC3)CC(F)(F)C1 [Compound 199]
O=C(NC1CC(O)(C(F)(F)F)C1)c1noc2c1CN(c1ncnc3[nH]ccc13)CC2 (stereo not shown) [Compound 201]

IC50, 500 to 1000 nM:
O=C(NCCC(F)(F)F)c1noc2c1CN(c1ncnc3[nH]ccc13)CC21CC1 [Compound 192]
O=C(NCCC(F)(F)F)c1onc2c1CN(c1ncnc3[nH]ccc13)CC21CC1 [Compound 193]

These molecules were tested against T1, TYK2 (Homo sapiens, UniProt P29597) (assay: Inhibition of TYK2 kinase, LANCE Ultra TR-FRET assay). Conditions: 4 nM TYK2, 2x ATP 30 μM, 15 min pre-incubation, 90 min reaction, 23° C., read-out: tyk IC50.
T1 construct: purchased Invitrogen PR8440C
T1 sequence (P29597 whole entry): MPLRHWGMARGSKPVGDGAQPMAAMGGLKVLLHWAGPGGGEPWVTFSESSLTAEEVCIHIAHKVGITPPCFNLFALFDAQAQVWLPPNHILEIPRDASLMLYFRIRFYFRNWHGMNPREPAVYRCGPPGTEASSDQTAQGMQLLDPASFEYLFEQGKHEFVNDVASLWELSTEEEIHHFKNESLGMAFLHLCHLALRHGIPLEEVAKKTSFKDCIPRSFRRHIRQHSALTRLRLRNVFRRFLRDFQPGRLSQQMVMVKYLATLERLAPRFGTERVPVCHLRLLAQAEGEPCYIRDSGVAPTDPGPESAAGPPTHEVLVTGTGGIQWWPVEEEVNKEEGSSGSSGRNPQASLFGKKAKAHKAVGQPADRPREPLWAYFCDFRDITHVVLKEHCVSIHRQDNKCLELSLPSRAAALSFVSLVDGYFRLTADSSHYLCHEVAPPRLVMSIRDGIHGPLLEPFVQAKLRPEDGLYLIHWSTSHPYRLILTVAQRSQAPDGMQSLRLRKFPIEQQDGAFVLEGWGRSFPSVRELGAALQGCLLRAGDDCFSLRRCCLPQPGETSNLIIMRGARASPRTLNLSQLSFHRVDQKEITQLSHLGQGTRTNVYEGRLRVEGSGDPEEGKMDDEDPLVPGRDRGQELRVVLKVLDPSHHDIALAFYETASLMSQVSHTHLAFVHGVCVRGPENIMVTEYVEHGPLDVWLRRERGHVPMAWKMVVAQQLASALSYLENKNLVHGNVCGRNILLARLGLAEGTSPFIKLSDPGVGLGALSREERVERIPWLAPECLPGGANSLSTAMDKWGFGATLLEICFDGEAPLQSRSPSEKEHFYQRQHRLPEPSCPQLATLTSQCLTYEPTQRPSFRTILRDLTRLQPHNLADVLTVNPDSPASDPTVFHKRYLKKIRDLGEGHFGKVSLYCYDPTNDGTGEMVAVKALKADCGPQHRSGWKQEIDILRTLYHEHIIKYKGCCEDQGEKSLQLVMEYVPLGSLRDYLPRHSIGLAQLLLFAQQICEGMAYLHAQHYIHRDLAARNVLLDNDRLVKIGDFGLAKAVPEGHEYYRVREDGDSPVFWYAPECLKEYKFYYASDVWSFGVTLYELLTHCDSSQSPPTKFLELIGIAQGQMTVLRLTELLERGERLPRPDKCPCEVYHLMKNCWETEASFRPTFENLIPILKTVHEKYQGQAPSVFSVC
Format: biochemical
Description: (§1) Exemplary compounds were assayed to determine potency in inhibiting activity of JAK1-3 and TYK2 kinases by determining IC50 values.
(§2) The sources of test materials and equipment are as follows: JAK1 (Invitrogen, Cat. No PV4775), JAK2 (Invitrogen, Cat. No PV4210), JAK3 (Invitrogen, Cat. No PV4080), TYK2 (Invitrogen, Cat. No PR8440C), ATP (Sigma, Cat. No. A7699-1G), DMSO (Sigma, Cat. No. D2650), DTT (Sigma, Cat. No. 43815), 384 wells_compound plate (Greiner, Cat. No. 781280), 384 wells_assay plate (Perkin Elmer, Cat. No. 6007299), LANCE Ultra ULight™-JAK-1 peptide (Perkin Elmer, Cat. No. TRF0121), LANCET™ Eu-W1024 Anti-phosphotyrosine (PT66) (Perkin Elmer, Cat. No. AD0069), LANCET™ Detection Buffer(Perkin Elmer, Cat. No. CR97-100).
(§3) The concentrations of test compounds varied from 100 μM to 1.7 nM with 3-fold dilution, 11 points, in duplicates while the concentrations of the reference compound, Tofacitinib, varied from 1 μM to 0.017 nM with 3-fold dilution, 11 points, in duplicates.
(§4) The assay buffer contained 50 mM HEPES (pH 7.5), 0.01% Brij-35, 10 mM MgCl2, 1 mM EDTA, 2 mM DTT. Incubations were carried out at 23° C.
(§5) Prior to the assay, enzyme, peptide substrate and serially diluted test compounds were pre-incubated together in assay buffer (5 μL) for 15 minutes (peptide substrate concentration: 50 nM; JAK enzyme concentrations: 2 nM JAK1; […]; […] and 4 nM TYK2). And the assay was initiated by the addition of 5 μL assay buffer containing 2× final ATP concentration (these are the 2×ATP concentrations: 76 μM JAK1; 24 μM JAK2; 8 μM JAK3 and 30 μM TYK2). Following the 90-minute incubation, antibody conjugated with Eu is dissolved in detection buffer to add into wells and then incubated for 60 minutes. The 10 μL detection buffer contains EDTA to stop the enzymatic reaction. The plate is analyzed by Perkin Elmer Envision on TR-FRET mode. The high ratio of 665/615 represents no inhibition of kinase reaction while the low ratio of 665/615 represents complete inhibition of kinase reaction.
(§6) Curves are fit by XLFIT5 as inhibition rate % vs. log [compound concentration] using 4 parameters logistic model 205.
(§7) In the table, “A” indicates an IC50 of less than 100 nM, “B” indicates an IC50 range from 100 nM to 500 nM; “C” indicates an IC50 range from 500 nM to 2 μM; and “D” indicates an IC50 greater than 2 μM. Also, “na” indicates data is not available.

IC50, 500 to 2000 nM:
O=C(NCCC(F)(F)F)c1onc2c1CN(c1ncnc3[nH]ccc13)CC21CC1 [Compound 193]
CC1(CNC(=O)c2noc3c2CN(c2ncnc4[nH]ccc24)CC3)CC(F)(F)C1 [Compound 199]

IC50, 100 to 500 nM:
O=C(NCC(O)C(F)(F)F)c1noc2c1CN(c1ncnc3[nH]ccc13)CC2 (stereo not shown) [Compound 190]
O=C(c1noc2c1CN(c1ncnc3[nH]ccc13)CC2)N1CC(C(F)(F)F)C1 [Compound 194]

IC50, > 2000 nM:
O=C(NCC1CC1)c1noc2c1CN(c1ncnc3[nH]ccc13)CC2 [Compound 180]
O=C(NCCC(F)(F)F)C1=NOC2CN(c3ncnc4[nH]ccc34)CC12 (stereo not shown) [Compound 187]
O=C(NCCC(F)(F)F)c1noc2c1CN(c1ncnc3[nH]cnc13)CC2 [Compound 188]
O=C(NCCC(F)(F)F)c1noc2c1CN(c1ncnc3[nH]ncc13)CC2 [Compound 189]
CSC(CNC(=O)c1noc2c1CN(c1ncnc3[nH]ccc13)CC2)C(F)(F)F (stereo not shown) [Compound 191]
O=C(NCCC(F)(F)F)c1noc2c1CN(c1ncnc3[nH]ccc13)CC21CC1 [Compound 192]
O=C(NCC1CC(F)(F)C1)c1noc2c1CN(c1ncnc3[nH]ccc13)CC2 [Compound 198]
O=C(NC1CC(O)(C(F)(F)F)C1)c1noc2c1CN(c1ncnc3[nH]ccc13)CC2 (stereo not shown) [Compound 201]

What follows are molecules tested against T2, JAK2 (Homo sapiens, UniProt O60674) (assay: Inhibition of JAK2 kinase, LANCE Ultra TR-FRET assay). Conditions: 2x ATP 24 μM, 15 min pre-incubation, 90 min reaction, 23° C.
T2 construct: purchased Invitrogen PV4210
T2 sequence (O60674 whole entry): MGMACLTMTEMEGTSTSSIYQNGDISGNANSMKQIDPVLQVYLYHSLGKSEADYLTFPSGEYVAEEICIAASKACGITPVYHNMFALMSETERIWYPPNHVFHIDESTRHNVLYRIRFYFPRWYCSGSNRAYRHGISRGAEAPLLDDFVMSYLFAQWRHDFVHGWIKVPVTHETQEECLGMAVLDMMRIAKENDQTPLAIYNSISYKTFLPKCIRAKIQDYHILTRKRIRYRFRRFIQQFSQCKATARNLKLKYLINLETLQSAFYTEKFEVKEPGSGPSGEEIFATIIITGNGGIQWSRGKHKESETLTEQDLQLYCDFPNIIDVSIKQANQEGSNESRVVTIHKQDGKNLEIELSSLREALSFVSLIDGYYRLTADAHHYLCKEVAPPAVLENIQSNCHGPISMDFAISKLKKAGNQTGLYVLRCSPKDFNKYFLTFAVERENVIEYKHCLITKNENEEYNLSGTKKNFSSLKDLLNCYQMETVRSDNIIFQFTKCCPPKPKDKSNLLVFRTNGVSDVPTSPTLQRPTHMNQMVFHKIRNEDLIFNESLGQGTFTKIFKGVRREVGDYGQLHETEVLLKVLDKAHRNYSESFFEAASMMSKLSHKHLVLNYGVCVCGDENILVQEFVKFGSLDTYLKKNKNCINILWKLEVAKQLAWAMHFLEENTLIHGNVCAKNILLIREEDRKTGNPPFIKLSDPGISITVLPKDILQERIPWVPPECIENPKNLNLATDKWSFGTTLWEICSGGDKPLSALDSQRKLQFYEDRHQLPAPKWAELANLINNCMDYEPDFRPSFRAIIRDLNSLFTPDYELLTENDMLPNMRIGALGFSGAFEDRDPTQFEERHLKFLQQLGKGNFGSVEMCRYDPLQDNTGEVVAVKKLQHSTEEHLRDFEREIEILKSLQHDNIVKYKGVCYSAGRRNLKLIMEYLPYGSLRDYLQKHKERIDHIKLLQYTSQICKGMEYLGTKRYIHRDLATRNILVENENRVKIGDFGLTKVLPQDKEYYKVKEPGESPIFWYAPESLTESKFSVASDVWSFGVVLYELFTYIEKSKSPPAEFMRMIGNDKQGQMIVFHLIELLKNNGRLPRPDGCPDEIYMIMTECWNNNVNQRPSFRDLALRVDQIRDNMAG
Format: biochemical
Description: as §1, §2, §3, §4, §5, §6, §7

IC50, < 100 nM:
O=C(NCC(O)C(F)(F)F)c1noc2c1CN(c1ncnc3[nH]ccc13)CC2 (stereo not shown) [Compound 190]
O=C(c1noc2c1CN(c1ncnc3[nH]ccc13)CC2)N1CC(C(F)(F)F)C1 [Compound 194]

IC50, 500 to 2000 nM:
O=C(NCCC(F)(F)F)C1=NOC2CN(c3ncnc4[nH]ccc34)CC12 (stereo not shown) [Compound 187]
O=C(NCCC(F)(F)F)c1noc2c1CN(c1ncnc3[nH]cnc13)CC2 [Compound 188]

IC50, > 2000 nM:
O=C(NCCC(F)(F)F)c1noc2c1CN(c1ncnc3[nH]ncc13)CC2 [Compound 189]

IC50, 100 to 500 nM:
O=C(NCC1CC1)c1noc2c1CN(c1ncnc3[nH]ccc13)CC2 [Compound 180]
CSC(CNC(=O)c1noc2c1CN(c1ncnc3[nH]ccc13)CC2)C(F)(F)F (stereo not shown) [Compound 191]
O=C(NCCC(F)(F)F)c1noc2c1CN(c1ncnc3[nH]ccc13)CC21CC1 [Compound 192]
O=C(NCCC(F)(F)F)c1onc2c1CN(c1ncnc3[nH]ccc13)CC21CC1 [Compound 193]
O=C(NCC1CC(F)(F)C1)c1noc2c1CN(c1ncnc3[nH]ccc13)CC2 [Compound 198]
CC1(CNC(=O)c2noc3c2CN(c2ncnc4[nH]ccc24)CC3)CC(F)(F)C1 [Compound 199]
O=C(NC1CC(O)(C(F)(F)F)C1)c1noc2c1CN(c1ncnc3[nH]ccc13)CC2 (stereo not shown) [Compound 201]

These molecules were tested against T3, JAK3 (Homo sapiens, UniProt P52333) (assay: Inhibition of JAK3 kinase, LANCE Ultra TR-FRET assay). Conditions: 2x ATP 8 μM, 15 min pre-incubation, 90 min reaction, 23° C.
T3 construct: purchased Invitrogen PV4080
T3 sequence (P52333 1-1124): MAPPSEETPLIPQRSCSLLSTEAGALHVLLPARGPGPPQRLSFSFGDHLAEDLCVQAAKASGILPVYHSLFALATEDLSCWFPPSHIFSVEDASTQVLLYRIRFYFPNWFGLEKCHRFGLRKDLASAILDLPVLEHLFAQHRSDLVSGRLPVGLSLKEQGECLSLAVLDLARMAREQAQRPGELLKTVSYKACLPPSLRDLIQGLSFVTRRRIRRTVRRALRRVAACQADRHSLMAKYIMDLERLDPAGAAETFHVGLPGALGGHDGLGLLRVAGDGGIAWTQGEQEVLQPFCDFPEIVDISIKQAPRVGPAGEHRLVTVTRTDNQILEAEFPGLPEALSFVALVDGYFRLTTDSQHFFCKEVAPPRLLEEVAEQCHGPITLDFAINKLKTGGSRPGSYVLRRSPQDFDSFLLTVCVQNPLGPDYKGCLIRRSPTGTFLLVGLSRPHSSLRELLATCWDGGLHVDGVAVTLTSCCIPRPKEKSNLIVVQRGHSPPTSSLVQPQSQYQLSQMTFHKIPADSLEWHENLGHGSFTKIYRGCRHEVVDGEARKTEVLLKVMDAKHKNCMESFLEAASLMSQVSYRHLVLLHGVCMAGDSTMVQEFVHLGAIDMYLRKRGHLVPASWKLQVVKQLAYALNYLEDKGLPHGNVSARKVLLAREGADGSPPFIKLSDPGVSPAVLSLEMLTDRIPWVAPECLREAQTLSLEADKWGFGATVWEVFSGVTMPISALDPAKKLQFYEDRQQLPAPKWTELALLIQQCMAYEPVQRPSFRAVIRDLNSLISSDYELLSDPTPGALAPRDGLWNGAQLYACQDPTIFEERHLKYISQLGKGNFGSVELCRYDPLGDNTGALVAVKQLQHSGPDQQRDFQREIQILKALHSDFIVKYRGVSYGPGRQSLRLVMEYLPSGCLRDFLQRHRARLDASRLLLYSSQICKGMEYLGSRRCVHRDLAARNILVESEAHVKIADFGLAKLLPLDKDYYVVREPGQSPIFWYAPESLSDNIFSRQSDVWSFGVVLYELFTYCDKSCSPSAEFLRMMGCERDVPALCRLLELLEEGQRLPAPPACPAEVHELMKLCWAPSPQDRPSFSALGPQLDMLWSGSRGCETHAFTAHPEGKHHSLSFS
Format: biochemical
Description: as §1, §2, §3, §4, §5, §6, §7

IC50, 100 to 500 nM:
O=C(NCCC(F)(F)F)C1=NOC2CN(c3ncnc4[nH]ccc34)CC12 (stereo not shown) [Compound 187]
O=C(NCCC(F)(F)F)c1noc2c1CN(c1ncnc3[nH]cnc13)CC2 [Compound 188]
O=C(NCCC(F)(F)F)c1noc2c1CN(c1ncnc3[nH]ncc13)CC2 [Compound 189]
CSC(CNC(=O)c1noc2c1CN(c1ncnc3[nH]ccc13)CC2)C(F)(F)F (stereo not shown) [Compound 191]

IC50, < 100 nM:
O=C(NCC1CC1)c1noc2c1CN(c1ncnc3[nH]ccc13)CC2 [Compound 180]
O=C(NCC(O)C(F)(F)F)c1noc2c1CN(c1ncnc3[nH]ccc13)CC2 (stereo not shown) [Compound 190]
O=C(NCCC(F)(F)F)c1noc2c1CN(c1ncnc3[nH]ccc13)CC21CC1 [Compound 192]
O=C(NCCC(F)(F)F)c1onc2c1CN(c1ncnc3[nH]ccc13)CC21CC1 [Compound 193]
O=C(c1noc2c1CN(c1ncnc3[nH]ccc13)CC2)N1CC(C(F)(F)F)C1 [Compound 194]
O=C(NCC1CC(F)(F)C1)c1noc2c1CN(c1ncnc3[nH]ccc13)CC2 [Compound 198]
CC1(CNC(=O)c2noc3c2CN(c2ncnc4[nH]ccc24)CC3)CC(F)(F)C1 [Compound 199]
O=C(NC1CC(O)(C(F)(F)F)C1)c1noc2c1CN(c1ncnc3[nH]ccc13)CC2 (stereo not shown) [Compound 201]

Each molecule was assayed against T4, JAK1 (Homo sapiens, UniProt P23458) (assay: Inhibition of JAK1 kinase, LANCE Ultra TR-FRET assay). Conditions: 2 nM JAK1, 2x ATP 76 μM, 15 min pre-incubation, 90 min reaction, 23° C.
T4 construct: purchased Invitrogen PV4775
T4 sequence (P23458 whole entry): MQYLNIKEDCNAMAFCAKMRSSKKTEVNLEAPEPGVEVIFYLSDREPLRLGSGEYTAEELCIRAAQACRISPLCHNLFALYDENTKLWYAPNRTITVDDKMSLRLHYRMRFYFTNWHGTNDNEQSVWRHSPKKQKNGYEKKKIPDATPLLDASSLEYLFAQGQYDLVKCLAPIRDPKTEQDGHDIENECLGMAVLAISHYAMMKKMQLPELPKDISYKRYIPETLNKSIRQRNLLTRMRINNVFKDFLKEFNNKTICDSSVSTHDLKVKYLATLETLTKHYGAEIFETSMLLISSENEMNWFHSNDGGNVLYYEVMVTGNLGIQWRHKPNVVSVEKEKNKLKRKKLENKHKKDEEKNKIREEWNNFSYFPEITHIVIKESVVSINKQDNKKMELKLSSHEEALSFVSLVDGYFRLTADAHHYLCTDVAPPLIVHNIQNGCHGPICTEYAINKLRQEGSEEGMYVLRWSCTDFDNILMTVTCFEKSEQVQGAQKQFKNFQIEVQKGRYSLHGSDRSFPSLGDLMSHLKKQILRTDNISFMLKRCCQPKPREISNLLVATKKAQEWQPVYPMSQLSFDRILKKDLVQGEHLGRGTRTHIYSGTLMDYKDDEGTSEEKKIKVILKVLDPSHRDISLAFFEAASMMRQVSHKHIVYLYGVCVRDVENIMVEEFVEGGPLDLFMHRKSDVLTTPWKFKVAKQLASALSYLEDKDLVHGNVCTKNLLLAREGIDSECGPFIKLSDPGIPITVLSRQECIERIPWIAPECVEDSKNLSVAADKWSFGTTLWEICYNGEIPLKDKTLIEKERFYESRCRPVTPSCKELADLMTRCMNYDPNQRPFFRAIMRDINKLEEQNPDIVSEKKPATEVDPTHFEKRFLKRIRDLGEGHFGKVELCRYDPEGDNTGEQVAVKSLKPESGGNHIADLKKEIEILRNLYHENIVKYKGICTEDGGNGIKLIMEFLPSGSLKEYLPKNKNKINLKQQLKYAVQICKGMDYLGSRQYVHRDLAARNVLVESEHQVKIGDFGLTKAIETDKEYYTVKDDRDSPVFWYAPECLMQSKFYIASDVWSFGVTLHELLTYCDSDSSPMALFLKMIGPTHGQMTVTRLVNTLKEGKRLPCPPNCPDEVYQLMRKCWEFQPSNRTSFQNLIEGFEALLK
Format: biochemical
Description: as §1, §2, §3, §4, §5, §6, §7

IC50, < 100 nM:
O=C(NCC(O)C(F)(F)F)c1noc2c1CN(c1ncnc3[nH]ccc13)CC2 (stereo not shown) [Compound 190]
O=C(NCCC(F)(F)F)c1noc2c1CN(c1ncnc3[nH]ccc13)CC21CC1 [Compound 192]
O=C(c1noc2c1CN(c1ncnc3[nH]ccc13)CC2)N1CC(C(F)(F)F)C1 [Compound 194]
O=C(NCC1CC(F)(F)C1)c1noc2c1CN(c1ncnc3[nH]ccc13)CC2 [Compound 198]
CC1(CNC(=O)c2noc3c2CN(c2ncnc4[nH]ccc24)CC3)CC(F)(F)C1 [Compound 199]
O=C(NC1CC(O)(C(F)(F)F)C1)c1noc2c1CN(c1ncnc3[nH]ccc13)CC2 (stereo not shown) [Compound 201]

IC50, 100 to 500 nM:
O=C(NCC1CC1)c1noc2c1CN(c1ncnc3[nH]ccc13)CC2 [Compound 180]
O=C(NCCC(F)(F)F)C1=NOC2CN(c3ncnc4[nH]ccc34)CC12 (stereo not shown) [Compound 187]
O=C(NCCC(F)(F)F)c1noc2c1CN(c1ncnc3[nH]cnc13)CC2 [Compound 188]
O=C(NCCC(F)(F)F)c1noc2c1CN(c1ncnc3[nH]ncc13)CC2 [Compound 189]
CSC(CNC(=O)c1noc2c1CN(c1ncnc3[nH]ccc13)CC2)C(F)(F)F (stereo not shown) [Compound 191]
O=C(NCCC(F)(F)F)c1onc2c1CN(c1ncnc3[nH]ccc13)CC21CC1 [Compound 193]
